Measurements published in patent US7056943B2, “Substituted indole oxo-acetyl amino acetic acid derivatives as inhibitors of plasminogen activator inhibitor-1 (PAI-1)” (Wyeth, priority 2002, dated 2006).

Key:
human PAI-1 = human PAI-1 (Homo sapiens, UniProt P05121); experiment: Assay for determining IC50 of inhibition of PAI-1 (active PAI-1 bound to tPA-coated plate, antibody detection); assay type: binding; conditions: human PAI-1 50 ng/ml, pH 7.5, tPA-coated plate
Description: Assay for Determining IC50 of Inhibition of PAI-1
This assay was based upon the non-SDS dissociable interaction between tPA and active PAI-1. Assay plates were initially coated with human tPA (10 μg/ml). Test compounds were dissolved in DMSO at 10 mM, then diluted with physiologic buffer (pH 7.5) to a final concentration of 1–50 μM. The test compounds were incubated with human PAI-1 (50 ng/ml) for 15 minutes at room temperature. The tPA-coated plate was washed with a solution of 0.05% Tween 20 and 0.1% BSA, then the plate is blocked with a solution of 3% BSA. An aliquot of the test compound/PAI-1 solution was then added to the tPA-coated plate, incubated at room temperature for 1 hour, and washed. Active PAI-1 bound to the plate was assessed by adding an aliquot of a 1:1000 dilution of the 33B8 monoclonal antibody against human PAI-1, and incubating the plate at room temperature for 1 hour (Molecular Innovations, Royal Oak, Mich.). […] The plate was incubated 45 minutes at room temperature, and color development is determined at OD405nm. The quantitation of active PAI-1 bound to tPA at varying concentrations of the test compound was used to determine the IC50. Results were analyzed using a logarithmic best-fit equation. The assay sensitivity is 5 ng/ml of human PAI-1 as determined from a standard curve ranging from 0–100 ng/ml.

[1] = biological target: T1, recombinant human plasminogen activator inhibitor-1 (Homo sapiens, UniProt P05121); experiment: Primary screen for the PAI-1 inhibition (residual tPA activity, chromogenic substrate Spectrozyme-tPA); assay type: biochemical; conditions: 25 uM test compound; 140 nM PAI-1, 70 nM tPA, pH 6.6
T1 construct: purchased Molecular Innovations, Royal Oak, Mich
Description: Primary Screen for the PAI-1 Inhibition The ability of the compounds of this invention to inhibit plasminogen activator inhibitor-1 was established by the following experimental procedures: Test compounds were dissolved in DMSO at a final concentration of 10 mM, then diluted 100× in physiologic buffer. The inhibitory assay was initiated by the addition of the test compound (1–100 μM final concentration, maximum DMSO concentration of 0.2%) in a pH 6.6 buffer containing 140 nM recombinant human plasminogen activator inhibitor-1 (Molecular Innovations, Royal Oak, Mich.). Following a 1 hour incubation at room temperature, 70 nM of recombinant human tissue plasminogen activator (tPA) was added, and the combination of the test compound, PAI-1 and tPA was incubated for an additional 30 minutes. Following the second incubation, Spectrozyme-tPA (American Diagnostica, Greenwich, Conn.), a chromogenic substrate for tPA, was added and absorbance was read at 405 nm at 0 and 60 minutes. Relative PAI-1 inhibition was equal to the residual tPA activity in the presence of the test compounds and PAI-1. Control treatments included the complete inhibition of tPA by PAI-1 at the molar ratio employed (2:1), and the absence of any effect of the test compound on tPA alone.

Sequence of human PAI-1 (P05121 24-402): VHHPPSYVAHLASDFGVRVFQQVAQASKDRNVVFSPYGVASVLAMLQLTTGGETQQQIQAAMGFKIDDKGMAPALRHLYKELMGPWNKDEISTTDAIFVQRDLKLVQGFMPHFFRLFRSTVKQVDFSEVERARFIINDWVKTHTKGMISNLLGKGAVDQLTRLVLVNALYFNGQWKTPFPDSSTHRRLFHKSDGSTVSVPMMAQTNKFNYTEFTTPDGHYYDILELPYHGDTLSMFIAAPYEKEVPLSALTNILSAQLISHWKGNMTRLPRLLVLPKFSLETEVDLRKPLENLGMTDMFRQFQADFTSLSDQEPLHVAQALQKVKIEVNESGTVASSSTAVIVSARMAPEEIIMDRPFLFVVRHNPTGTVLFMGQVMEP
T1 sequence (P05121 24-402): as above

## Cc1cccc(-c2ccc3c(c2)c(C(=O)C(=O)NCC(=O)O)cn3Cc2ccc(C(C)(C)C)cc2)c1 [Example 1, {[[1-(4-tert-butylbenzyl)-5-(3-methylphenyl)-1H-indol-3-yl](oxo)acetyl]amino}acetic acid]
Human PAI-1
  IC50: 29 µM
other
  melting point: 120 to 121 °C

## O=C(O)CNC(=O)C(=O)c1cn(Cc2ccccc2)c2ccc(-c3ccc(OC(F)(F)F)cc3)cc12 [Example 2, 2-[(2-{1-Benzyl-5-[4-(trifluoromethoxy)phenyl]-1H-indol-3-yl}-2-oxoacetyl)amino]acetic acid]
Human PAI-1
  IC50: 28 µM
other
  melting point: 211 to 212 °C (dec.)

## CN(CC(=O)O)C(=O)C(=O)c1cn(Cc2ccccc2)c2ccc(-c3cccc(OC(F)(F)F)c3)cc12 [Example 3, 2-[(2-{1-Benzyl-5-[3-(trifluoromethoxy)phenyl]-1H-indol-3-yl}-2-oxoacetyl)(methyl)amino]acetic acid]
[1]
  inhibition at 25 µM: 24%
other
  melting point: 178 to 179 °C
